Measured values taken from PubChem BioAssay (NCI).
Where “and” joins values, the source holds several entries; their conditions need not be identical. Equal values may be shown once.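 Five compound concentrations were applied to cells in 96-well plates for 48 hours; endpoints were derived by simple linear interpolation of the resulting dose-response curve. The concentration for 50% growth inhibition is given as GI50. TGI marks complete inhibition of growth.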

What was measured:
Assay in all cases: DTP human tumour cell line panel, 48 h
[1] = tested on: CCRF-CEM leukemia
[2] = tested on: HCT-116 colon
[3] = tested on: HCT-15 colon
[4] = tested on: HS 578T breast
[5] = tested on: NCI-H226 lung
[6] = tested on: OVCAR-3 ovarian
[7] = tested on: OVCAR-8 ovarian
[8] = tested on: SK-MEL-2 melanoma
[9] = tested on: SK-MEL-28 melanoma
[10] = tested on: UACC-62 melanoma

In the case of `Cc1nc2ccccn2c1NC(=O)NN1C(=O)CSC1c1ccc(Cl)cc1` (configuration not stated), the TGI [1] is reported as 0.012 µM, the GI50 [2] is reported as over 100 µM and the TGI [2] is reported as over 100 µM. For the same compound, the GI50 [3] was over 100 µM, the TGI [3] was over 100 µM and the GI50 [4] was over 100 µM. For the same compound, the TGI [4] was over 100 µM, the GI50 [5] was over 100 µM and the TGI [5] was over 100 µM. For the same compound, the GI50 [6] was over 100 µM, the TGI [6] was over 100 µM and the GI50 [7] was over 100 µM. It also gave a TGI [7] of over 100 µM, a GI50 [8] of over 100 µM and a TGI [8] of over 100 µM. The GI50 [9] was over 100 µM, the TGI [9] was over 100 µM and the GI50 [10] was over 100 µM. For the same compound, the TGI [10] was over 100 µM.
With `COc1ccc(-c2nn(-c3cccc(Cl)c3)cc2/C=C2\NC(=S)N(c3ccc(Cl)cc3)C2=O)cc1` the GI50 [1] was 2.98 µM, the TGI [1] was 11 µM and the GI50 [2] was 3.18 µM. For the same compound, the TGI [2] was 7.75 µM, the GI50 [3] was 7.94 µM and the TGI [3] was over 25 µM. For the same compound, the GI50 [4] was 4.14 µM, the TGI [4] was 24.1 µM and the GI50 [5] was 4.03 µM. It also gave a TGI [5] of 9.36 µM, a GI50 [6] of 5.54 µM and a TGI [6] of 12.9 µM. For the same compound, the GI50 [7] was 2.62 µM, the TGI [7] was 7.02 µM and the GI50 [8] was 4.15 µM. It also gave a TGI [8] of 9.61 µM, a GI50 [9] of 4.1 µM and a TGI [9] of 7.97 µM. It also gave a GI50 [10] of 3.29 µM and a TGI [10] of 7.64 µM.
For `O=C1Cc2c(-c3ccccc3)cc(-c3ccccc3)nc2-c2ccccc2N1`, the TGI [1] was over 100 µM, the TGI [2] was 5.37 µM and the TGI [3] was 4.4 µM. The TGI [4] was 19 µM, the TGI [5] was 46.9 µM and the TGI [6] was 21.4 µM. For the same compound, the TGI [7] was 21 µM, the TGI [8] was 7.27 µM and the TGI [9] was 83.7 µM. The TGI [10] was 25.7 µM.
`Cc1cc2c(cc1Cl)SC(N(c1ccccc1Cl)S(=O)(=O)c1ccc(Br)s1)=NS2(=O)=O` gave a GI50 [1] of 25.8 µM, a TGI [1] of 82.1 µM and a GI50 [2] of 16.5 µM. It also gave a TGI [2] of 34.3 µM, a GI50 [3] of 15.5 µM and a TGI [3] of 32.7 µM. It also gave a GI50 [4] of 18 µM, a TGI [4] of 41.4 µM and a GI50 [5] of 23.1 µM. It also gave a TGI [5] of over 100 µM, a GI50 [6] of 18.2 µM and a TGI [6] of 60.1 µM. For the same compound, the GI50 [8] was 12.8 µM, the TGI [8] was 43.7 µM and the GI50 [9] was 15.2 µM. It also gave a TGI [9] of 29.6 µM, a GI50 [10] of 20.3 µM and a TGI [10] of 68.4 µM.
`CN(C)c1ccc(/C=C/C(=O)c2ccc(Nc3nc(Nc4ccc(F)cc4)nc(Nc4ccc(F)cc4)n3)cc2)cc1` gave a GI50 [1] of 5.61 µM, a TGI [1] of over 100 µM and a GI50 [2] of 11.4 µM. For the same compound, the TGI [2] was 32.4 µM, the GI50 [3] was 19.4 µM and the TGI [3] was over 100 µM. For the same compound, the GI50 [4] was 14.4 µM, the TGI [4] was 51.9 µM and the GI50 [5] was 23.4 µM. The TGI [5] was 78.8 µM, the GI50 [6] was 16.8 µM and the TGI [6] was 46 µM. The GI50 [7] was 11.6 µM, the TGI [7] was 40.3 µM and the GI50 [8] was 14.2 µM. The TGI [8] was 52.5 µM, the GI50 [9] was 17 µM and the TGI [9] was 75.5 µM. For the same compound, the GI50 [10] was 27.4 µM and the TGI [10] was over 100 µM.
With `C[C@@H](O)[C@@H](C)Oc1nc(Nc2ccc(S(=N)(=O)C3CC3)cc2)ncc1C(F)(F)F` (some centres not stated) the GI50 [1] was 0.0231 µM, the TGI [1] was 0.0621 µM and the GI50 [2] was 0.0228 µM. It also gave a TGI [2] of over 100 µM, a GI50 [3] of 0.0329 µM and a TGI [3] of over 46.8 µM. It also gave a GI50 [4] of 0.0313 µM, a TGI [4] of 7.96 µM and a GI50 [5] of 0.0288 µM. The TGI [5] was 0.106 µM, the GI50 [6] was 0.018 µM and the TGI [6] was 18.6 µM. It also gave a GI50 [8] of 0.0219 µM, a TGI [8] of 0.0621 µM and a GI50 [9] of 0.0294 µM. For the same compound, the TGI [9] was 0.178 µM, the GI50 [10] was 0.0249 µM and the TGI [10] was 0.0931 µM.
In the case of `CC[C@@]1(O)C(=O)OCc2c1cc1n(c2=O)Cc2cc3cc(Cl)ccc3nc2-1`, the TGI [1] is reported as over 100 µM, the GI50 [3] is reported as 0.0559 µM and 0.106 µM and the TGI [3] is reported as 10.5 µM. The GI50 [4] was 0.445 µM, the GI50 [5] was 0.00345 µM and the TGI [5] was 0.108 µM and 0.117 µM. For the same compound, the GI50 [6] was 0.0456 µM and 0.137 µM, the TGI [6] was 0.274 µM and 0.452 µM and the GI50 [7] was 0.00117 µM and 0.0112 µM. The TGI [7] was 0.109 µM and 0.203 µM, the GI50 [8] was 0.169 µM and 0.187 µM and the TGI [8] was 0.677 µM and 0.691 µM. The GI50 [9] was 0.0542 µM and 0.0355 µM, the TGI [9] was 4.52 µM and 8.65 µM and the GI50 [10] was 0.00183 µM.
With `OCC#CCOCC#Cc1ccccc1C#CCOCC#CCO` the GI50 [1] was 18.5 µM, the TGI [1] was 57.1 µM and the GI50 [2] was 16.6 µM. For the same compound, the TGI [2] was 44 µM, the GI50 [3] was 20.9 µM and the TGI [3] was over 100 µM. It also gave a GI50 [4] of over 100 µM, a TGI [4] of over 100 µM and a GI50 [5] of 41.4 µM. The TGI [5] was over 100 µM, the GI50 [6] was 38.1 µM and the TGI [6] was over 100 µM. For the same compound, the GI50 [7] was 43.8 µM, the TGI [7] was over 100 µM and the GI50 [8] was over 100 µM. It also gave a TGI [8] of over 100 µM, a GI50 [10] of 25.8 µM and a TGI [10] of 75.1 µM.
With `C[C@@H](Nc1nc(N[C@H](C)C(F)(F)F)nc(-c2cccc(Cl)n2)n1)C(F)(F)F` the GI50 [1] was over 100 µM, the TGI [1] was over 100 µM and the GI50 [2] was 59.4 µM. It also gave a TGI [2] of over 100 µM, a GI50 [3] of over 100 µM and a TGI [3] of over 100 µM. It also gave a GI50 [4] of 26 µM, a TGI [4] of over 100 µM and a GI50 [5] of 35.6 µM. It also gave a TGI [5] of over 100 µM, a GI50 [6] of 31.5 µM and a TGI [6] of over 100 µM. For the same compound, the GI50 [7] was 31.3 µM, the TGI [7] was over 100 µM and the GI50 [8] was 25.6 µM. The TGI [8] was over 100 µM, the GI50 [9] was 72.5 µM and the TGI [9] was over 100 µM.
Work on `CCCCCC/C=C/C#CCCCCCCCC(=O)O` yielded a TGI [1] of over 100 µM, a TGI [2] of over 100 µM and a TGI [3] of over 100 µM. The TGI [4] was over 100 µM, the TGI [5] was over 100 µM and the TGI [6] was over 100 µM. It also gave a TGI [7] of over 100 µM, a TGI [8] of over 100 µM and a TGI [9] of over 100 µM.
For `C=C1CCC2CC1C(C(=O)c1c[nH]c3ccccc13)=NC2(C)C` (configuration not stated), the TGI [1] was over 100 µM, the TGI [2] was over 100 µM and the TGI [3] was over 100 µM. For the same compound, the TGI [4] was over 100 µM, the TGI [5] was over 100 µM and the TGI [6] was over 100 µM. It also gave a TGI [7] of over 100 µM, a TGI [9] of over 100 µM and a TGI [10] of over 100 µM.
Compound `COc1ccccc1-n1cnc(N)c1C(=O)c1cc(OC)c(OC)c(OC)c1` has a GI50 [1] of 2.69 µM, a TGI [1] of over 100 µM and a GI50 [2] of 4.95 µM. The TGI [2] was over 100 µM, the GI50 [3] was 3.36 µM and the TGI [3] was over 100 µM. It also gave a GI50 [4] of 2.16 µM, a TGI [4] of 7.69 µM and a GI50 [5] of 4.34 µM. For the same compound, the TGI [5] was over 100 µM, the GI50 [6] was 3.34 µM and the TGI [6] was 19.3 µM. For the same compound, the GI50 [7] was 5.85 µM, the TGI [7] was over 100 µM and the GI50 [9] was 9.62 µM. For the same compound, the TGI [9] was over 100 µM, the GI50 [10] was 1.88 µM and the TGI [10] was over 100 µM.
